In ChEMBL document CHEMBL1140032, “Furoxan-, alkylnitrate-derivatives and related compounds as anti-trypanosomatid agents: mechanism of action studies” (2008):
Calls of active or inactive are those of the source. The calls are words filed in the database; no cut-off is given here.

How the values were obtained:
Leishmania braziliensis = experiment: Antileishmanial activity against Leishmania braziliensis MHOM/BR/00/LTB300 assessed as parasite viability after 5 days by MTT assay; format: functional; conditions: 120 h, read-out: ID50 (the source's name)
Trypanosoma cruzi [1] = experiment: Antitrypanosomal activity against Trypanosoma cruzi Y assessed as parasite viability after 5 days by MTT assay; format: functional; conditions: 120 h, read-out: ID50 (the source's name)
Leishmania pifanoi [2] = experiment: Antileishmanial activity against Leishmania pifanoi MHOM/VE/57/LV135 assessed as parasite viability after 5 days by MTT assay; format: functional; conditions: 120 h, read-out: ID50 (the source's name)
Trypanosoma cruzi [3] = experiment: Antitrypanosomal activity against Trypanosoma cruzi CL Brener assessed as parasite viability after 5 days by MTT assay; format: functional; conditions: 120 h, read-out: ID50 (the source's name)
Trypanosoma cruzi [4] = experiment: Antitrypanosomal activity against Trypanosoma cruzi Tulahuen 2 assessed as inhibition of growth of epimastigotes at 25 uM after 5 days by MTT assay relative to control; format: functional; conditions: Tulahuen 2, 120 h, read-out: GI
Trypanosoma cruzi [5] = experiment: Antitrypanosomal activity against Trypanosoma cruzi Tulahuen 2 assessed as inhibition of epimastigotes growth after 5 days by MTT assay relative to control; format: functional; conditions: Tulahuen 2, 120 h, read-out: ID50 (the source's name)
Trypanosoma cruzi [6] = experiment: Antitrypanosomal activity against Trypanosoma cruzi CL Brener assessed as lysis of trypomastigotes at 50 uM after 2 hrs relative to control; format: functional
Trypanosoma cruzi [7] = experiment: Antitrypanosomal activity against Trypanosoma cruzi CL Brener assessed as lysis of trypomastigotes at 50 uM after 19 hrs relative to control; format: functional
Trypanosoma cruzi [8] = experiment: Antitrypanosomal activity against Trypanosoma cruzi CL Brener assessed as lysis of trypomastigotes at 25 uM after 2 hrs relative to control; format: functional
Trypanosoma cruzi [9] = experiment: Antitrypanosomal activity against Trypanosoma cruzi CL Brener assessed as lysis of trypomastigotes at 25 uM after 19 hrs relative to control; format: functional
Trypanosoma cruzi [10] = experiment: Inhibition of Trypanosoma cruzi Y mitochondrial dehydrogenase activity by MTT assay relative to control
Leishmania pifanoi [11] = experiment: Antileishmanial activity against Leishmania pifanoi MHOM/VE/57/LV135 at 5.0 uM after 5 days assessed as parasite viability by MTT assay; format: functional; conditions: 120 h, read-out: GI
[12] = Inhibition of nitric oxide production by Griess assay; format: functional; parameters: concentration or dose not given beside the values; conditions: dose or concentration not given here
Trypanosoma cruzi [13] = experiment: Antitrypanosomal activity against Trypanosoma cruzi CL Brener in Vero cells assessed as number of amastigote infected; format: functional
Trypanosoma cruzi [14] = experiment: Antitrypanosomal activity against Trypanosoma cruzi CL Brener assessed as lysis of trypomastigotes at 10 uM after 2 hrs relative to control; format: functional
Trypanosoma cruzi [15] = experiment: Antitrypanosomal activity against Trypanosoma cruzi CL Brener in Vero cells assessed as endocytic index at 2.5 uM; format: functional
Trypanosoma cruzi [16] = experiment: Antitrypanosomal activity against Trypanosoma cruzi CL Brener in Vero cells assessed as infection; format: functional
Trypanosoma cruzi [17] = experiment: Antitrypanosomal activity against Trypanosoma cruzi CL Brener clone assessed as lysis of trypomastigotes at 10 uM after 3 hrs relative to control; format: functional
Trypanosoma cruzi [18] = experiment: Antitrypanosomal activity against Trypanosoma cruzi CL Brener clone assessed as lysis of trypomastigotes at 10 uM after 26 hrs relative to control; format: functional

| SMILES | IC50 (Trypanosoma cruzi [1]) [µM] | IC50 (Trypanosoma cruzi [3]) [µM] | IC50 (Leishmania braziliensis) [µM] | IC50 (Leishmania pifanoi [2]) [µM] | IC50 (Trypanosoma cruzi [5]) [µM] | inhibition [12] [%] | other results |
| --- | --- | --- | --- | --- | --- | --- | --- |
| C=CS(=O)(=O)c1c(-c2ccccc2)no[n+]1[O-] | 6.8 | 2.6 | 10 | 26.7 | 6.5 |  | Activity (Trypanosoma cruzi [6]): 62%; Activity (Trypanosoma cruzi [7]): 100%; Activity (Trypanosoma cruzi [8]): 33%; Activity (Trypanosoma cruzi [9]): 100%; Activity (Trypanosoma cruzi [10]): Active |
| CCCCCCCCCCCCCCCCOP(=O)([O-])OCC[N+](C)(C)C [MILTEFOSINE] |  |  | 9 |  |  |  | inhibition of growth at 5 µM (Leishmania pifanoi [11]): 85.5% |
| CCSCCS(=O)(=O)c1no[n+]([O-])c1-c1ccccc1 | 6 | 37.1 | > 50 | > 50 | 5 | < 1 |  |
| COc1ccccc1NCCS(=O)(=O)c1no[n+]([O-])c1-c1ccccc1 | 26.2 | 7.2 | 9.9 | 33.8 | 8 | < 1 |  |
| O=S(=O)(c1ccccc1)c1c(-c2ccccc2)no[n+]1[O-] | 4.3 | 4.2 | 1.6 | 3.8 | 5 | 10.3 |  |
| O=S(=O)(c1ccccc1)c1no[n+]([O-])c1-c1ccccc1 | > 50 | 9.1 | 20.2 | 20.5 | 7.5 | < 1 |  |
| COc1ccccc1NCCS(=O)(=O)c1c(-c2ccccc2)no[n+]1[O-] | 9.2 | 5 | 13.7 | 6.5 | 7.5 | 20.8 |  |
| CCSCCS(=O)(=O)c1c(-c2ccccc2)no[n+]1[O-] | 3.9 | 0.9 | 4 | 4.6 | 7.5 | 10 |  |
| O=C(Cn1ccnc1[N+](=O)[O-])NCc1ccccc1 [BENZNIDAZOLE] |  |  |  | 3.8 | 4.5 |  |  |
| NC(=O)CS(=O)(=O)c1c(-c2ccccc2)no[n+]1[O-] | 6 | 3.7 | 14.3 | > 50 | 10 |  | Activity (Trypanosoma cruzi [13]): 1.6; Activity (Trypanosoma cruzi [7]): 100%; Activity (Trypanosoma cruzi [14]): 0%; Activity (Trypanosoma cruzi [9]): 100%; Activity (Trypanosoma cruzi [15]): 10.1; Activity (Trypanosoma cruzi [16]): 6.3%; Activity (Trypanosoma cruzi [17]): 5%; Activity (Trypanosoma cruzi [18]): 100%; Activity (Trypanosoma cruzi [10]): Active |
| CCOCCS(=O)(=O)c1c(-c2ccccc2)no[n+]1[O-] | 3.4 | 1.5 | 4.1 | 4.2 | 10 | 10 | Activity (Trypanosoma cruzi [6]): 68%; Activity (Trypanosoma cruzi [7]): 100%; Activity (Trypanosoma cruzi [9]): 100%; Activity (Trypanosoma cruzi [10]): Active |
| CCOCCS(=O)(=O)c1no[n+]([O-])c1-c1ccccc1 | > 50 | > 50 | > 50 | > 50 | 17 | < 1 |  |

Now from value to compound, other results behind:

| IC50 (Trypanosoma cruzi [1]) [µM] | IC50 (Trypanosoma cruzi [3]) [µM] | SMILES | IC50 (Leishmania braziliensis) [µM] | IC50 (Leishmania pifanoi [2]) [µM] | IC50 (Trypanosoma cruzi [5]) [µM] | inhibition [12] [%] | other results |
| --- | --- | --- | --- | --- | --- | --- | --- |
| > 50 | > 50 | NC(=O)CSc1no[n+]([O-])c1-c1ccccc1 | > 50 | > 50 |  |  | inhibition of growth at 25 µM (Trypanosoma cruzi [4]): 12% |
| > 50 | > 50 | NC(=O)CS(=O)(=O)c1nonc1-c1ccccc1 | > 50 | > 50 |  |  | inhibition of growth at 25 µM (Trypanosoma cruzi [4]): 27% |
| > 50 | > 50 | NC(=O)CSc1c(-c2ccccc2)no[n+]1[O-] | > 50 | > 50 |  |  | inhibition of growth at 25 µM (Trypanosoma cruzi [4]): 19% |
| 48 | > 50 | NC(=O)CS(=O)(=O)c1no[n+]([O-])c1-c1ccccc1 | > 50 | > 50 | 25 |  |  |
| > 50 | > 50 | CCOCCS(=O)(=O)c1nonc1-c1ccccc1 | > 50 | > 50 | 7.5 |  |  |
| 28.7 | > 50 | CCSCCS(=O)(=O)c1nonc1-c1ccccc1 | > 50 | > 50 |  |  | inhibition of growth at 25 µM (Trypanosoma cruzi [4]): 25% |
| 50 | > 50 | COc1ccccc1NCCS(=O)(=O)c1nonc1-c1ccccc1 | 11.6 | 15.8 | 10 |  |  |
| > 50 | > 50 | O=S(=O)(c1ccccc1)c1nonc1-c1ccccc1 | > 50 | > 50 | 10 |  |  |
| 23.5 | 22.2 | C=CS(=O)(=O)c1nonc1-c1ccccc1 | 8 | 20.4 | 6.5 |  |  |
| 11.1 | 8.2 | C=CS(=O)(=O)c1no[n+]([O-])c1-c1ccccc1 | 39.1 | > 50 | 5.5 |  |  |
| > 50 | > 50 | NC(=O)CSc1nonc1-c1ccccc1 | > 50 | > 50 |  |  | inhibition of growth at 25 µM (Trypanosoma cruzi [4]): 17% |
